US7601716B2, “Pyridopyrazines and derivatives thereof as ALK and c-Met inhibitors” (Cephalon, Inc., priority 2006, dated 2009)
pIC50: −log10 of the molar value. Counter-ions that a name gives are not always drawn.

Columns and labels:
NPM-ALK = target: T1, NPM-ALK (Homo sapiens, UniProt Q9UM73); assay: ALK Cellular Assay (phospho-NPM-ALK immunoblot / ALK tyrosine phosphorylation ELISA); format: cell-based
T1 construct: a fusion protein consisting of nucleophosmin (NMP) and the intracellular domain of ALK; the other entry of the earlier key: NPM1 (P06748, Nucleophosmin)
Protocol: Immunoblotting of phospho-NPM-ALK and total NPM-ALK from cell lysates was carried out according to the protocols provided by the antibody suppliers. In brief, after treatment of Example compounds, cells were lysed in Frak lysis buffer [10 mM Tris, pH 7.5, 1% Triton X-100, 50 mM sodium chloride, 20 mM sodium fluoride, 2 mM sodium pyrophosphate, 0.1% BSA, plus freshly prepared 1 mM activated sodium vanadate, 1 mM dithiothreitol (#165680050, ARCOS Organics, Geel, Belgium), and 1 mM PMSF (#837091, Boehringer Mannheim Biochemicals, Indianapolis, Ind.), protease inhibitors cocktail III (#539134-1Set, Calbiochem, 1:100 dilution)]. After brief sonication, the lysates were cleared by centrifugation, mixed with sample buffer and subjected to SDS-PAGE. Following transfer to membranes, the membranes were blotted with either rabbit phospho-NPM-ALK(Y664) (Cat^#3341) or ALK antibody (Cat^#3342) from Cell Signaling Technology (Beverly, Mass.), and then the HRP-conjugated goat anti-rabbit antibodies (Santa Cruz, Calif.) after washed in TBS/0.2% Tween-20. The protein bands were visualized with ECL Western Blotting detection reagents (RPN2106, Amersham Biosciences, Buckinghamshire, UK) and quantitated with gel-pro analyzer 3.1 software.
To measure ALK tyrosine phosphorylation in cells with an ELISA assay, fluoronunc plates (Cat^#437796, Nalge Nunc, Rochester, N.Y.) were pre-coated with goat anti-mouse IgG, and incubated with the capture mouse ALK antibody (Cat^#35-4300, Zymed, Seattle, Wash.) diluted 1:1000 in Superblock (Pierce, Rockford, Ill.). Following blocking, cell lysates were added to plates and incubated overnight at 4° C. Plates were incubated with the detecting antibody, anti-phospho-ALK (Y664) (Cell Signaling Technology), diluted at 1:2000, followed by incubation with goat anti-rabbit-IgG alkaline phosphatase to amplify the detection. Wells were exposed to the fluorogenic substrate 4-MeUP (#3368-04-5, Calbiochem) and the signal quantified using a CytoFluor® (series 4000) Fluorescence Multi-Well Plate Reader (Applied Biosystems, Foster City, Calif.).

[1] = target: baculovirus-expressed ALK (Homo sapiens, UniProt Q9UM73); assay: ALK Kinase Assay (ELISA/TRF, PLC-γ substrate); format: biochemical; details: read-out: ALK Kinase Inhibition (IC50); note: 1 µM ATP (Km level)
baculovirus-expressed ALK, sequence (Q9UM73 19-1620): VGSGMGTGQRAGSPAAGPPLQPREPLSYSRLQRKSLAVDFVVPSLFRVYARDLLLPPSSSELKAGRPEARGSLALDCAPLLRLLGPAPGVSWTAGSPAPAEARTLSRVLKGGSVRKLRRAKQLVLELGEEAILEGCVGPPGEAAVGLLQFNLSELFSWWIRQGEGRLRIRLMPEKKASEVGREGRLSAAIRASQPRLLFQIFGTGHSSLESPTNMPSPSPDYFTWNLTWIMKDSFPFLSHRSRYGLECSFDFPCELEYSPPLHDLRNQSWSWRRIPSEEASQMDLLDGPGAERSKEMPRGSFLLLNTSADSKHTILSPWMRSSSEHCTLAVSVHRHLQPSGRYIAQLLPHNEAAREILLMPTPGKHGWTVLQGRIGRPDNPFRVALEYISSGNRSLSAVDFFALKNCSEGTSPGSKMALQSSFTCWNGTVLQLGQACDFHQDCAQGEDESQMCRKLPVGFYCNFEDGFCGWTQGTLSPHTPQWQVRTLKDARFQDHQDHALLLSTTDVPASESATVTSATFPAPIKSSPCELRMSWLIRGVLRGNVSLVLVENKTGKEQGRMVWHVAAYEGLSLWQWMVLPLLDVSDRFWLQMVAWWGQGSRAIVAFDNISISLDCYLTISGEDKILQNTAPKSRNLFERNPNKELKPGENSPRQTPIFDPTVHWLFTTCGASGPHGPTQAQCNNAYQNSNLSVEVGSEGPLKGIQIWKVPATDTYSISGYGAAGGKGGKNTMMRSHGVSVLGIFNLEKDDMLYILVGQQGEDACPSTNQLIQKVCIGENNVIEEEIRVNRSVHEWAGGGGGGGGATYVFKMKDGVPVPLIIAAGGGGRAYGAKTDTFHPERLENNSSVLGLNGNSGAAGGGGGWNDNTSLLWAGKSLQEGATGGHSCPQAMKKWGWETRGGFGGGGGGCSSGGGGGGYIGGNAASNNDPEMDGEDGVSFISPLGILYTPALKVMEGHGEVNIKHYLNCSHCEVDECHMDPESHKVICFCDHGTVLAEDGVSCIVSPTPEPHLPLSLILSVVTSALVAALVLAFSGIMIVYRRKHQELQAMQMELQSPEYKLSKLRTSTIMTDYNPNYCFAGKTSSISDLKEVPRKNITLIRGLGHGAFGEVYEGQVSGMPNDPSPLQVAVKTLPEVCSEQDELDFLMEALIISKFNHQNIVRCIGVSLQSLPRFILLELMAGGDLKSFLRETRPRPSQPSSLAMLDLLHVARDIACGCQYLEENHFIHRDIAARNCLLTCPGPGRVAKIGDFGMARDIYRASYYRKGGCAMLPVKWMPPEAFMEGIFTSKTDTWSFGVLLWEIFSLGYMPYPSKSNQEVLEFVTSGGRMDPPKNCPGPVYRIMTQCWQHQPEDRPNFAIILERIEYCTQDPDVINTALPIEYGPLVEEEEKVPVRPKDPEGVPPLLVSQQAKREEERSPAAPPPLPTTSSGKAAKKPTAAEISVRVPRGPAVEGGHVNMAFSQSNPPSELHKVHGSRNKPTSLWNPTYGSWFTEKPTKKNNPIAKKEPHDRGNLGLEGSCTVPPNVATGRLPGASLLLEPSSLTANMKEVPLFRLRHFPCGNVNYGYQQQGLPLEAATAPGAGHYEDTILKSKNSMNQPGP
Method in brief: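 Read-out: TRF of europium-labeled anti-phosphotyrosine antibody bound to phosphorylated GST–PLC-γ coated at 10 μg/mL. Kinase step used 30 ng/ml ALK, 37° C, 15 minutes. IC50 values fitted by nonlinear sigmoidal dose-response (variable slope).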

[2] = target: T2, c-Met (cytoplasmic domain) (Homo sapiens, UniProt P08581); assay: c-Met Kinase Assay (ELISA/TRF, PLC-γ substrate); format: biochemical; details: 3 μM ATP (Km level); read-out: c-Met Kinase Inhibition (IC50)
T2 construct: Reactions were initiated with 30 ng/mL c-Met (cytoplasmic domain, Invitrogen Corporation #PV3143); purchased Invitrogen Corporation PV3143
T2 sequence (P08581 956-1390 limits assumed): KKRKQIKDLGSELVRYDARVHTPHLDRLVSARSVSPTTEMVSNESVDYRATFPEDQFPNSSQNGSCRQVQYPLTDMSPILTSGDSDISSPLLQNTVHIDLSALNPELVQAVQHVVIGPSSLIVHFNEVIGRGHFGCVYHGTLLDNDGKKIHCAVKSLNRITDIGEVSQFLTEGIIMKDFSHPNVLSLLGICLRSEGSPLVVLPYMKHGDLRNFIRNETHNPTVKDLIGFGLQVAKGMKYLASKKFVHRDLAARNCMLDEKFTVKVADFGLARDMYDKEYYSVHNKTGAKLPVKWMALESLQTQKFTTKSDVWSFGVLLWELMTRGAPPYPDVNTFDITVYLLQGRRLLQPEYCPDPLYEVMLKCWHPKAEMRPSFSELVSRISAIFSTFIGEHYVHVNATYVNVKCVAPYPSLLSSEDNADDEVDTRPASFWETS
Method in brief: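 Readout is TRF of europium anti-phosphotyrosine (PT66) bound to GST–PLC-γ substrate coated at 10 μg/mL, after a 15 min, 37 °C reaction started with 30 ng/mL c-Met cytoplasmic domain. Percent inhibition plotted against log compound concentration and fitted (variable slope) for IC50.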

[3] = target: T3, c-Met (phospho-c-Met) in A549 cells (Homo sapiens, UniProt P08581); assay: c-Met Cellular Activity/Autophosphorylation Assay, A549 cells (HGF stimulated); format: cell-based; details: 50 ng/mL HGF; for inhibition at 1 µM: 1 μM compound, read-out: c-Met autophosphorylation inhibition score, A549 Cells (1 μM); for inhibition at 3 µM: 3 μM compound, read-out: c-Met autophosphorylation inhibition score, A549 Cells (3 μM)
T3 construct: endogenous in cells; host or cells: HT29, A549 (HGF-stimulated), GTL-16
T3 sequence (P08581 25-1390): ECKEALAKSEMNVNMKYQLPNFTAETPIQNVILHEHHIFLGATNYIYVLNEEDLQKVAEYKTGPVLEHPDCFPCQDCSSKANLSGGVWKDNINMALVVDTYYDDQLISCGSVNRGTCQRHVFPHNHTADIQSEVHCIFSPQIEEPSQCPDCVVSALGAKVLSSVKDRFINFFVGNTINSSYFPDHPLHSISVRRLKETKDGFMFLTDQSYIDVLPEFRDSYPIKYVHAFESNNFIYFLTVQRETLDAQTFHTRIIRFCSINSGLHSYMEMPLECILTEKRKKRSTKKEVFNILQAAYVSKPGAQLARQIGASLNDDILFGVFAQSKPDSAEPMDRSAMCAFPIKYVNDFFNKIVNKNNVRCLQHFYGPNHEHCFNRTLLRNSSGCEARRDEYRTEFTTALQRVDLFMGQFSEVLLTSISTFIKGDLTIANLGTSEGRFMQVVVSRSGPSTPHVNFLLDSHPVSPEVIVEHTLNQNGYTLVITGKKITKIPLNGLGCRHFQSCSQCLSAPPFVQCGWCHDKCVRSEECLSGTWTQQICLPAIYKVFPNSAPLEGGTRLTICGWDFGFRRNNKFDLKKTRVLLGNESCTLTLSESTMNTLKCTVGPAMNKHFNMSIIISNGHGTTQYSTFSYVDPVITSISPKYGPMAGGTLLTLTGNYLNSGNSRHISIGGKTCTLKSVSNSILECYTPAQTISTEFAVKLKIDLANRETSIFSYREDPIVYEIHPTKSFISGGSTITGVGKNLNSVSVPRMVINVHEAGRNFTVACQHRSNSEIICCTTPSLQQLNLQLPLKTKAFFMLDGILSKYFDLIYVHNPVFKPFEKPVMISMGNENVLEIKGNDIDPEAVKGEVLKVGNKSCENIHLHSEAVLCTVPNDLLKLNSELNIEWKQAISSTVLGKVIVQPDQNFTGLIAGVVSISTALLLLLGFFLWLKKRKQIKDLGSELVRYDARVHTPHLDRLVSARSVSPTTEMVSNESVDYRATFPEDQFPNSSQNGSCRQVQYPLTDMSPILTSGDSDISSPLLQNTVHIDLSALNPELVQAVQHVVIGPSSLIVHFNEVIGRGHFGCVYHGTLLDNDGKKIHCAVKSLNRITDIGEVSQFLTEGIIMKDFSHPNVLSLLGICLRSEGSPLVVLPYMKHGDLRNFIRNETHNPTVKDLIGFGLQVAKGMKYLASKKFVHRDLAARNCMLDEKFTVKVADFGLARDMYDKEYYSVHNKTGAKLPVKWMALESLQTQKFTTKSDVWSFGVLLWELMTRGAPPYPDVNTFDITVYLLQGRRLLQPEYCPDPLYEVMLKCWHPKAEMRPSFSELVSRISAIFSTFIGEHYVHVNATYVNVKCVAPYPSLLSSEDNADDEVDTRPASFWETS
Protocol: (§1) HT29 and GTL-16 cells were serum starved for one hour in media containing 0.05% BSA and varying concentrations of Example compounds (1-10 μM). A549 cells were serum starved overnight in media containing 0.05% BSA then treated for one hour with Example compounds followed by a 15 minute stimulation with 50 ng/mL HGF (Peprotech, Rocky Hill, N.J.), respectively. Samples were resolved by electrophoresis on a 3-8% Tris-Acetate gel (40 ma/gel) and then transferred to a nitrocellulose membrane. Membranes were blocked for one hour at room temperature in Odyssey Blocking Buffer (Licor #927-40000) diluted 1:1 with 1×TBS. Membranes were then co-incubated overnight at 4° C. with primary antibodies [total Met (Cell Signaling, #3127) and Phospho-Met (Biosource, #44-888G) 1:1000 each in Odyssey Blocking Buffer diluted 1:1 with 1×TBS-T 0.05%]. The next day, membranes were washed and co-incubated with secondary antibodies [Goat anti mouse IRDye800 (Rockland, #610-132-121) and Goat anti rabbit Alexa fluor 700 (Molecular Probes, #A21038) 1:10,000] in Odyssey Blocking Buffer diluted 1:1 with 1×TBS-T 0.05% for one hour at room temperature protected from light. Blots were then washed and read on the Odyssey Infrared Imager. Total c-Met signal was visualized at 800 nm detection and phospho-c-Met signal was visualized at 700 nm detection.

[4] = target: T4, c-Met (phospho-c-Met) in HT29 cells (Homo sapiens, UniProt P08581); assay: c-Met Cellular Activity/Autophosphorylation Assay, HT29 cells; format: cell-based; details: for inhibition at 1 µM: HT-29, 1 μM compound, read-out: c-Met autophosphorylation inhibition score, HT29 Cells (1 μM); for inhibition at 3 µM: HT-29, 3 μM compound, read-out: c-Met autophosphorylation inhibition score, HT29 Cells (3 μM)
T4 construct: endogenous in cells; host or cells: HT29, A549 (HGF-stimulated), GTL-16
T4 sequence (P08581 25-1390): as above
Protocol: as §1

SMILES	inhibition at 1 µM (NPM-ALK; NPM-ALK, 1 μM compound, read-out: ALK Cellular Activity Inhibition Score at 1 μM) [%]	pIC50 [1]	pIC50 [2]	pIC50 (NPM-ALK)	inhibition at 1 µM [3] [%]	inhibition at 3 µM [3] [%]	melting point	inhibition at 1 µM [4] [%]	inhibition at 3 µM [4] [%]
CN(C)CCCCNC(=O)c1ccc(-c2cnc3c(c2)N(Cc2c(Cl)cccc2Cl)C(=O)CN3)cc1 [Example 144, 4-[1-(2,6-Dichlorobenzyl)-2-oxo-1,2,3,4-tetrahydropyrido[2,3-b]pyrazin-7-yl]-N-(4-dimethylaminobutyl)benzamide, trifluoroacetic acid salt]	0 to 25	6.00 to 7.00	5.00 to 6.00						
CC(c1cc(F)ccc1F)N1CCNc2ncc(-c3ccc(C(=O)N4CCC[C@H]4CN4CCCC4)cc3)cc21 (stereo partly drawn) [Example 154, S-(4-{1-[1-(2,5-Difluorophenyl)ethyl]-1,2,3,4-tetrahydropyrido[2,3-b]pyrazin-7-yl}phenyl)-{2-[(pyrrolidin-1-yl)methyl]pyrrolidin-1-yl}methanone]		> 7.00	4.00 to 5.00	6.30 to 6.60					
CN(C)CCCCNC(=O)c1cnc2c(c1)N(Cc1cc(Cl)ccc1C(F)(F)F)CCN2 [Example 295, 1-[5-Chloro-2-(trifluoromethyl)benzyl]-1,2,3,4-tetrahydropyrido[2,3-b]pyrazine-7-carboxylic acid [4-(dimethylamino)butyl]amide]		> 7.00	5.00 to 6.00	6.30 to 6.60					
O=C(c1ccc(-c2cnc3c(c2)N(Cc2cc(F)ccc2F)CCN3)cn1)N1CCOCC1 [Example 76, {5-[1-(2,5-Difluorobenzyl)-1,2,3,4-tetrahydropyrido[2,3-b]pyrazin-7-yl]-pyridin-2-yl}morpholin-4-yl-methanone]		6.00 to 7.00	5.00 to 6.00		0 to 25	0 to 25	111 to 113 °C	0 to 25	26 to 50
Fc1ccc(F)c(CN2CCNc3ncc(-c4cccc(N5CCOCC5)c4)cc32)c1Cl [Example 189, 1-(2-Chloro-3,6-difluorobenzyl)-7-(3-morpholin-4-yl-phenyl)-1,2,3,4-tetrahydropyrido[2,3-b]pyrazine]		> 7.00	6.00 to 7.00	≥ 6.60					
CN1CCN(c2ccc(-c3cnc4c(c3)N(Cc3cc(Cl)ccc3Cl)CCN4)cn2)CC1 [Example 180, 1-(2,5-Dichlorobenzyl)-7-[6-(4-methylpiperazin-1-yl)pyridin-3-yl]-1,2,3,4-tetrahydropyrido[2,3-b]pyrazine]		> 7.00	5.00 to 6.00	6.30 to 6.60					
O=C(O)c1ccc(-c2cnc3c(c2)N(Cc2cc(F)ccc2F)CCN3)cn1 [Example 72, 5-[1-(2,5-Difluorobenzyl)-1,2,3,4-tetrahydropyrido[2,3-b]pyrazin-7-yl]-pyridine-2-carboxylic acid]		6.00 to 7.00	5.00 to 6.00		0 to 25	0 to 25	240 °C (dec.)	26 to 50	26 to 50
COC1CCN(C(=O)c2ccc(-c3cnc4c(c3)N(Cc3cc(Cl)ccc3C(F)(F)F)CCN4)cc2)CC1 [Example 205]		> 7.00	5.00 to 6.00	6.30 to 6.60					
O=C(c1ccc(-c2cnc3c(c2)N(Cc2ccccc2)CCN3)cc1)N1CCC[C@H]1CN1CCCC1 [Example 38, [4-(1-Benzyl-1,2,3,4-tetrahydropyrido[2,3-b]pyrazin-7-yl)phenyl]-((S)-2-pyrrolidinylmethylpyrrolidin-1-yl)methanone, trifluoroacetic acid salt]		6.00 to 7.00	6.00 to 7.00	6.12 to 6.30					
Fc1ccc(F)c(CN2CCNc3ncc(-c4ccnc(N5CCOCC5)c4F)cc32)c1Cl [Example 102, 1-(2-Chloro-3,6-difluorobenzyl)-7-(3-fluoro-2-morpholin-4-yl-pyridin-4-yl)-1,2,3,4-tetrahydropyrido[2,3-b]pyrazine]		6.00 to 7.00	5.00 to 6.00		0 to 25	26 to 50		26 to 50	51 to 75
